The results in this text go back to patent EP0609289B1, “IMIDAZOLE DERIVATIVES AND PHARMACEUTICAL COMPOSITIONS CONTAINING THE SAME” (THE UPJOHN COMPANY, priority 1991, dated 1993).

For the first experiment, the target named is Angiotensin II receptor. Description: In vitro angiotensin II mesenteric artery receptor binding assay (test 1). The note with it: rat mesenteric artery membrane fraction, 0.2 nM 125I-Ang II, 22°C, 90 minutes. How it is done: I) In vitro angiotensin II mesenteric artery receptor binding assay
According to the method (1) by Gunther et al., a membrane fraction was prepared from mesenteric artery of male rat, […] protein equivalent of it and 0.2 nM ^125I-Ang II as well as various concentrations of test compounds were incubated at 22°C for 90 minutes in an incubation buffer (50 mM Tris-HCl, 120 mM NaCl, 5 mM MgCl2. 0.25% bovine serum albumin, pH 7.2) (reaction volume; 200 µl). The incubated was cooled, and the reaction was stopped by addition of ice-cooled phosphate buffer (10 mM phosphate, 140 mM NaCI, pH 7.4, hereinafter referred to as PBS), and then the reaction solution was filtered through a glass fiber filter (Whatman CF/B), the filter was washed, dried, and then the radioactivity of captured ^125I-angiotensin II which bound to the receptor was measured by a γ-counter. Non-specific bound amount was obtained from the reaction in the presence of 1 µM of unlabeled angiotensin II. […] Res., 17:278-286, 1980].
The term IC50 denotes the concentration at which inhibition is half-maximal. Read a low IC50 as greater potency in that assay. As to `CCCc1nc2c(=O)n3n(c(=O)c2n1Cc1ccc(-c2ccccc2-c2nn[nH]n2)cc1)CC(C)C(C)C3` (centres unmarked) [Compound No. 50, 6,7-dimethyl-2-n-propyl-5,6,7,8-tetrahydro-1-[(2'-(1H-tetrazol-5-yl)biphenyl-4-yl)methyl]-1H-1,3,4a,8a-tetraza-cyclopentanaphthalene-4,9-dione], the IC50 stood at 5.3 nM.
The compound `CCCc1nc2c(=O)n3n(c(=O)c2n1Cc1ccc(-c2ccccc2-c2nn[nH]n2)cc1)C(C(=O)OCC)CCC3C` (centres unmarked) [Compound No. 138, ethyl 4,9-dioxo-5-methyl-2-n-propyl-5,6,7,8-tetrahydro-1-[(2'-(1H-tetrazol-5-yl)biphenyl-4-yl)methyl]-1H-1,3,4a,8a-tetraza-cyclopentanaphthalene-8-carboxylate] had an IC50 of 4 nM.
Regarding `CCCCc1nc2c(=O)n3n(c(=O)c2n1Cc1ccc(-c2ccccc2-c2nn[nH]n2)cc1)C1CCC3(C(=O)OCC)CC1` [Compound No. 196, ethyl 2-n-butyl-4,9-dioxo-5,8-ethano-5,6,7,8-tetrahydro-1-[{2'-(1H-tetrazol-5-yl)biphenyl-4-yl}methyl]-1H-1,3,4a,8a-tetraza-cyclopentanaphthalene-5-carboxylate], the IC50 is 4.6 nM.
Regarding `CCCCc1nc2c(=O)n3n(c(=O)c2n1Cc1ccc(-c2ccccc2-c2nnn[nH]2)cc1)C(C)CCC3C(=O)NC(C)(C)C` (centres unmarked) [Compound No. 208, 2-n-butyl-4,9-dioxo-8-methyl-5,6,7,8-tetrahydro-1-[{2'-(1H-tetrazol-5-yl)biphenyl-4-yl}methyl]-1H-1,3,4a,8a-tetraza-cyclopentanaphthalene-5-carboxy-N-t-butylamide], the IC50 amounted to 8.2 nM.
`CCCc1nc2c(n1Cc1ccc(-c3ccccc3-c3nn[nH]n3)cc1)C(=O)N1CC(CC)=C(CC)CN1C2` [Compound No. 390, 6,7-diethyl-5,8-dihydro-2-n-propyl-1-[{2'-(1H-tetrazol-5-yl)biphenyl-4-yl}methyl]-1H,4H-1,3,4a,8a-tetraza-cyclopentanaphthalene-9-one]: the IC50 is 35 nM.
Still for that read-out and setting: as for `CCCCc1nc2c(n1Cc1ccc(-c3ccccc3-c3nn[nH]n3)cc1)C(=O)N1C3CCC(C)(CC3)N1C2` [Compound No. 443, 2-n-butyl-5,8-ethano-5-methyl-5,6,7,8-tetrahydro-1-[{2'-(1H-tetrazol-5-yl)biphenyl-4-yl}methyl]-1H,4H-1,3,4a,8a-tetraza-cyclopentanaphthalene-9-one], the figure is 1.3 nM.
`CCCCc1nc2c(n1Cc1ccc(-c3ccccc3-c3nn[nH]n3)cc1)C(=O)N1N(C2)C2CCC1(C)CC2` [Compound No. 447, 2-n-butyl-5,8-ethano-8-methyl-5,6,7,8-tetrahydro-1-[{2'-(1H-tetrazol-5-yl)biphenyl-4-yl}methyl]-1H,4H-1,3,4a,8a-tetraza-cyclopentanaphthalene-9-one]: the IC50 stood at 2.5 nM.
Same read-out and setting: as for `CCc1nc2c(n1Cc1ccc(-c3ccccc3-c3nnn[nH]3)cc1)C(=O)N1N(C2)C2(CC)CCC1(CC)CC2` [Compound No. 453, 5,8-diethyl-5,8-ethano-2-ethyl-5,6,7,8-tetrahydro-1-[{2'-(1H-tetrazol-5-yl)biphenyl-4-yl}methyl]-1H,4H-1,3,4a,8a-tetraza-cyclopentanaphthalene-9-one], the figure is over 100 nM; as for `CCCc1nc2c(n1Cc1ccc(-c3ccccc3-c3nnn[nH]3)cc1)C(=O)N1C(c3ccccc3)CCCN1C2` (centres unmarked) [Compound No. 470, 8-phenyl-2-n-propyl-5,6,7,8-tetrahydro-1-[{2'-(1H-tetrazol-5-yl)biphenyl-4-yl}methyl]-1H,4H-1,3,4a,8a-tetraza-cyclopentanaphthalene-9-one], 20 nM.
`CCCc1nc2c(n1Cc1ccc(-c3ccccc3-c3nnn[nH]3)cc1)CN1C3CCC(CC3)N1C2` [Compound No. 523, 5,8-ethano-4,5,6,7,8,9-hexahydro-2-n-propyl-1-[{2'-(1H-tetrazol-5-yl)biphenyl-4-yl}methyl]-1H-1,3,4a,8a-tetraza-cyclopentanaphthalene] had an IC50 of over 100 nM.
The compound `CCCCc1nc2c(n1Cc1ccc(-c3ccccc3-c3nnn[nH]3)cc1)CN1C(C)CCC(CO)N1C2=O` (centres unmarked) [Compound No. 538, 2-n-butyl-5-hydroxymethyl-8-methyl-5,6,7,8-tetrahydro-1-[{2'-(1H-tetrazol-5-yl)biphenyl-4-yl}methyl]-1H-9H-1,3,4a,8a-tetraza-cyclopentanaphthalene-4-one] came in with an IC50 of over 100 nM.
For `CCCCc1nc2c(n1Cc1ccc(-c3ccccc3-c3nnn[nH]3)cc1)CN1C(CO)CCC(C)N1C2=O` (centres unmarked) [Compound No. 540, 2-n-butyl-8-hydroxymethyl-5-methyl-5,6,7,8-tetrahydro-1-[{2'-(1H-tetrazol-5-yl)biphenyl-4-yl}methyl]-1H,9H-1,3,4a,8a-tetraza-cyclopentanaphthalene-4-one], the IC50 came out at 34 nM.
On the same count and under the same terms, the same measure for `CCCc1nc2c(=O)n3n(c(=O)c2n1Cc1ccc(-c2ccccc2-c2nn[nH]n2)cc1)C(C(=O)O)CCC3C` (centres unmarked) [compound 56, 4,9-dioxo-5-methyl-2-n-propyl-5,6,7,8-tetrahydro-1-[(2'-(1H-tetrazol-5-yl)biphenyl-4-yl)methyl]-1H-1,3,4a,8a-tetraza-cyclopentanaphthalene-8-carboxylic acid]: over 30 nM; for `CCCCc1nc2c(=O)n3n(c(=O)c2n1Cc1ccc(C(=O)O)cc1)C(C(=O)O)CCC3C` (centres unmarked) [compound 121, 2-n-butyl-1-[(4-carboxyphenyl)methyl]-4,9-dioxo-5-methyl-5,6,7,8-tetrahydro-1H-1,3,4a,8a-tetraza-cyclopentanaphthalene-8-carboxylic acid]: over 100 nM; for `CCCCc1nc2c(=O)n3n(c(=O)c2n1Cc1ccc(C(=O)O)cc1)C(C)CCC3C(=O)O` (centres unmarked) [compound 124, 2-n-butyl-1[(4-carboxyphenyl)methyl]-4,9-dioxo-8-methyl-5,6,7,8-tetrahydro-1H-1,3,4a,8a-tetraza-cyclopentanaphthalene-5-carboxylic acid]: over 100 nM.
With `CCCCc1nc2c(=O)n3n(c(=O)c2n1Cc1ccc(-c2ccccc2-c2nn[nH]n2)cc1)C(C(=O)OCC)CCC3C` (centres unmarked) [compound 167, ethyl 2-n-butyl-4,9-dioxo-5-methyl-5,6,7,8-tetrahydro-1-[{2'-(1H-tetrazol-5-yl)biphenyl-4-yl}methyl]-1H-1,3,4a,8a-tetraza-cyclopentanaphthalene-8-carboxylate], the IC50 amounted to 3.2 nM.
Consider `CCCc1nc2c(=O)n3n(c(=O)c2n1Cc1ccc(-c2ccccc2-c2nn[nH]n2)cc1)C(C)CCC3C` (centres unmarked) [compound 337, 5,8-dimethyl-2-n-propyl-5,6,7,8-tetrahydro-1-[{2'-(1H-tetrazol-5-yl)biphenyl-4-yl}methyl]-1H-1,3,4a,8a-tetraza-cyclopentanaphthalene-4,9-dione], for which the IC50 was found to be 4.6 nM.
Same read-out and setting: the same measure for `CCc1nc2c(=O)n3n(c(=O)c2n1Cc1ccc(-c2ccccc2-c2nn[nH]n2)cc1)C1(CC)CCC3(CC)CC1` [compound 355, 5,8-diethyl-5,8-ethano-2-ethyl-5,6,7,8-tetrahydro-1-[{2'-(1H-tetrazol-5-yl)biphenyl-4-yl}methyl]-1H-1,3,4a,8a-tetraza-cyclopentanaphthalene-4,9-dione]: over 100 nM.
For `CCc1nc2c(=O)n3n(c(=O)c2n1Cc1ccc(-c2ccccc2-c2nn[nH]n2)cc1)C1(C)CCC3(C)CC1` [compound 361, 5,8-dimethyl-5,8-ethano-2-ethyl-5,6,7,8-tetrahydro-1-[{2'-(1H-tetrazol-5-yl)biphenyl-4-yl}methyl]-1H-1,3,4a,8a-tetraza-cyclopentanaphthalene-4,9-dione], the IC50 was determined as 55 nM.
The same measure, in the same setting: as for `C/C=C/c1nc2c(n1Cc1ccc(-c3ccccc3-c3nnn[nH]3)cc1)C(=O)N1N(C2)C2(CC)CCC1(CC)CC2` [compound 521, 5,8-diethyl-5,8-ethano-2-(1-E-propenyl)-5,6,7,8-tetrahydro-1-[{2'-(1H-tetrazol-5-yl)biphenyl-4-yl}methyl]-1H,4H-1,3,4a,8a-tetraza-cyclopentanaphthalene-9-one], the figure is 9.1 nM; as for `CCc1nc2c(=O)n3n(c(=O)c2n1Cc1ccc(-c2ccccc2-c2nnn[nH]2)cc1)C1CCC3CC1` [compound 543, 5,8-ethano-2-ethyl-5,6,7,8-tetrahydro-1-[{2'-(1H-tetrazol-5-yl)biphenyl-4-yl}methyl)-1H-1,3,4a,8a-tetraza-cyclopentanaphthalene-4,9-dione], 26 nM; as for `CCCCc1nc2c(=O)n3n(c(=O)c2n1Cc1ccc(C(=O)O)cc1)C1CCC3CC1` [compound 544, 2-n-butyl-1-[(4-carboxyphenyl)methyl]-5,8-ethano-5,6,7,8-tetrahydro-1H-1,3,4a,8a-tetraza-cyclopentanaphthalene-4,9-dione], over 100 nM.

Another experiment has as its system blood pressure increase by angiotensin II. Briefly: Antagonism to blood pressure increase by angiotensin II in a spine destroyed (pithed) rat (test 4). Format: in vivo, Wistar rat. As to conditions: intravenous administration, 3µg/kg angiotensin II, read-out: Inhibition of blood pressure increase by angiotensin II in pithed rat ED50(mg/kg) (test 4). The text has this:
4) Antagonism to blood pressure increasing by angiotensin II in a spine destroyed rat
Wistar rat anaesthetized with pentobarbital was fixed at dorsal position, and a cannula for measuring blood pressure was inserted into sinister arteria carotis communis, and a cannula for administration of the test compound into dexter external jugular vein and a cannula for administration of angiotensin II into sinister external jugular vein, ambilateral nervus vagus was cut, and artificial respiration was carried out. A thin bar made of metal was stabbed into spinal column through sinister orbita to destroy spine. Blood pressure was recorded on polygraph via pressure transducer from an arterial cannula. After blood pressure was stable for more than 30 min., 3µg/kg of angiotensin II was administered intravenously four times every 15 min, and every 5 min. before the administration of angiotensin II from the second administration onward, a solvent, a lower dose of the test compound, and a higher dose of the test compound were administered intravenously in this order to observe the blood pressure increasing response by angiotensin II. ED50 values were calculated from the inhibiting rate when the first blood pressure increase by angiotensin II was regarded as 100 %.
Take `CCCc1nc2c(=O)n3n(c(=O)c2n1Cc1ccc(-c2ccccc2-c2nn[nH]n2)cc1)CC(C)C(C)C3` (centres unmarked) [Compound No. 50, 6,7-dimethyl-2-n-propyl-5,6,7,8-tetrahydro-1-[(2'-(1H-tetrazol-5-yl)biphenyl-4-yl)methyl]-1H-1,3,4a,8a-tetraza-cyclopentanaphthalene-4,9-dione]: the ED50 was determined as 0.2 mg/kg.
On the same count and under the same terms, the same measure for `CCCc1nc2c(=O)n3n(c(=O)c2n1Cc1ccc(-c2ccccc2-c2nn[nH]n2)cc1)C(C(=O)OCC)CCC3C` (centres unmarked) [Compound No. 138, ethyl 4,9-dioxo-5-methyl-2-n-propyl-5,6,7,8-tetrahydro-1-[(2'-(1H-tetrazol-5-yl)biphenyl-4-yl)methyl]-1H-1,3,4a,8a-tetraza-cyclopentanaphthalene-8-carboxylate]: 0.096 mg/kg; for `CCCCc1nc2c(=O)n3n(c(=O)c2n1Cc1ccc(-c2ccccc2-c2nn[nH]n2)cc1)C1CCC3(C(=O)OCC)CC1` [Compound No. 196, ethyl 2-n-butyl-4,9-dioxo-5,8-ethano-5,6,7,8-tetrahydro-1-[{2'-(1H-tetrazol-5-yl)biphenyl-4-yl}methyl]-1H-1,3,4a,8a-tetraza-cyclopentanaphthalene-5-carboxylate]: 0.23 mg/kg; for `CCCCc1nc2c(=O)n3n(c(=O)c2n1Cc1ccc(-c2ccccc2-c2nnn[nH]2)cc1)C(C)CCC3C(=O)NC(C)(C)C` (centres unmarked) [Compound No. 208, 2-n-butyl-4,9-dioxo-8-methyl-5,6,7,8-tetrahydro-1-[{2'-(1H-tetrazol-5-yl)biphenyl-4-yl}methyl]-1H-1,3,4a,8a-tetraza-cyclopentanaphthalene-5-carboxy-N-t-butylamide]: 0.12 mg/kg.
